Reference: US12053456B2, “Pharmaceutical compositions for combination therapy” (GENFIT, priority 2017, dated 2024)

System: α-SMA in TGFβ1-induced hHSC
Experiment: α-SMA ELISA in TGFβ1-activated human primary hepatic stellate cells (single agents and combination matrix, EOB/EOHSA)
Assay type: cell-based
Conditions: single agent, 1 hour preincubation, TGFβ1 1 ng/ml, 48 hours
Protocol: Serum-deprived HSC were preincubated for 1 hour with Elafibranor (A) or Nitazoxanide (B), or Bezafibrate (C) before the activation with the profibrogenic cytokine TGFβ1 (1 ng/ml). After 48 hours of incubation, the expression of α-SMA was measured by ELISA. The obtained values were transformed into percentage inhibition over TGFβ1 control. Data are presented as mean (triplicates)±standard deviation (SD)]. The curve fitting and the calculation of half maximal inhibitory concentration (IC50) were performed with XLFit software 5.3.1.3.
Combinations were tested in a dose-response matrix format and analyzed according to the excess over Bliss (EOB) additivism model. Dilution series of Elafibranor (row) and Nitazoxanide (column) were prepared, including their respective DMSO controls. The resulting mixes were added to serum-deprived HSC, 1 hour prior to the activation with the profibrogenic cytokine TGFβ1 (1 ng/ml). […] (B) EOB scores were calculated as described in Materials and Methods. […] The total EOB score including all combinations was also calculated. […]
Combinations were tested in a dose-response matrix format and analyzed according to the excess over Bliss (EOB) additivism model. […] Percentage of α-SMA inhibition over the TGFβ1 control for all combination pairs was calculated. EOB scores were calculated as described in Materials and Methods. […]

O=C(Nc1ncc([N+](=O)[O-])s1)c1ccccc1O [TZ, tizoxanide]
antifibrotic activity (α-SMA) in TGFβ-induced hHSC: profile similar to the parent drug
